Assay results from patent US7709613B2, “Rhenium-188 and rhenium-186 for treatment of tumors expressing a Na+/I− symporter” (priority 2002, dated 2010).
Read-outs that look alike come from different tables or passages of the source.

Tests used:
rat thyroid NIS = molecular target: T1, rat thyroid NIS (Rattus norvegicus, UniProt Q63008); conditions: ref. [44], cited from earlier work; for Km: actively transported ions
T1 sequence (Q63008 1-618): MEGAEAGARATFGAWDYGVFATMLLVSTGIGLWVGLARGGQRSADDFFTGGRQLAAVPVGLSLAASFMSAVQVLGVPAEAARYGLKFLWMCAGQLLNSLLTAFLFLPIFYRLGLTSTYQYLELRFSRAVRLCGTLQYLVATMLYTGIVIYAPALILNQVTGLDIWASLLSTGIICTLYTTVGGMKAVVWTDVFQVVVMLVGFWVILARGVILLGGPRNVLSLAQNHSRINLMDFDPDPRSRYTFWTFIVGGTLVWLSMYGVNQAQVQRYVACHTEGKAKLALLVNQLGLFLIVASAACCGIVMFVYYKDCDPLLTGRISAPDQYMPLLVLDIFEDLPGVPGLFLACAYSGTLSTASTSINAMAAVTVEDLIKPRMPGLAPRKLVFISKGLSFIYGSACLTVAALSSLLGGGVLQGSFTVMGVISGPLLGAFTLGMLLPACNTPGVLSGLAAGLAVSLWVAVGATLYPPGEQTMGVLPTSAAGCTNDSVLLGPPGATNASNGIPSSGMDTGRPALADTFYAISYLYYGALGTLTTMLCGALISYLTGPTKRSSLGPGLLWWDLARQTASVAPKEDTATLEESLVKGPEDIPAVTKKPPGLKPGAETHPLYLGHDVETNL

[1] = system: NIS-expressing xenografted mammary adenocarcinoma (NAFA cells); format: in vivo, nude mice
Method: Animal model. […] Since erbB-2 (Neu) is one of the better known human breast cancer oncogenes, a mammary tumor cell line (NAFA) induced by oncogenic Neu was used. The NAFA cell line derived from the MMTV-NeuT mouse was grown in DMEM with 10% fetal bovine serum and 1% penicillin-streptomycin. […] Female nude mice (Charles River Laboratories) 4-6 weeks old were injected SC with 10^6 NAFA cells into the left groin.
Biodistribution. […] In order to block mg-NIS in expressing organs and tumor, control animals were injected with the above mixture of isotopes combined with 2 mg NaClO4. […] The % ID/g for each organ was determined, and RIs (% ID/g in the tumor divided by the % ID/g in normal tissue) were calculated.

FRTL-5 cells = conditions: read-out: Km for ^125I^− influx; cited from earlier work
hNIS = molecular target: T2, hNIS (Homo sapiens, UniProt Q92911); experiment: Comparative 125I and 188Re uptake into hNIS-transfected and non-transfected MDCK cells; format: cell-based; conditions: for Km: hNIS-transfected MDCK cells, Lineweaver-Burk plot, 4-min initial rates, read-out: Km for influx
T2 construct: expressed in transfected cells; host or cells: MDCK (Madin-Darby canine kidney) cells, hNIS in pcDNA 3.1
T2 sequence (Q92911 1-643): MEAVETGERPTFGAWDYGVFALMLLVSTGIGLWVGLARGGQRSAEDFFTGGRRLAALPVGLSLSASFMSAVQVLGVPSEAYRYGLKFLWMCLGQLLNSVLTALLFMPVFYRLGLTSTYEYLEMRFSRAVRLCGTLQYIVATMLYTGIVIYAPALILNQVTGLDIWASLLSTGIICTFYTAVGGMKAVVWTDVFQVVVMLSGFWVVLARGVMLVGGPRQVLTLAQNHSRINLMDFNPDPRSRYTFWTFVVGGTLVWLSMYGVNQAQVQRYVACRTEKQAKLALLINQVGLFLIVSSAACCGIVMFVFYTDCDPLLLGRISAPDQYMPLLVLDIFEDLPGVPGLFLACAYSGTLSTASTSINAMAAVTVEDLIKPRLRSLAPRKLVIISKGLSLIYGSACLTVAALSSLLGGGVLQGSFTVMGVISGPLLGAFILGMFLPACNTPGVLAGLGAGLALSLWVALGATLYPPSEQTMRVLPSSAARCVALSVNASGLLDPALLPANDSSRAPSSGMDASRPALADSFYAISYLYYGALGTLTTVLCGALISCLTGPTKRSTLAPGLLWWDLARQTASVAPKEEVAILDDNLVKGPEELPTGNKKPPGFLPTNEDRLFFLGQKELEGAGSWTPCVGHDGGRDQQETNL
Method: Comparative ^125I and ^188Re uptake into the NIS-expressing cells. Both concentration dependence and kinetic experiments for ^125I and ^188ReO4^− in hNIS-transfected (hNIS in pcDNA 3.1 plasmid) and non-transfected MDCK (Madin-Darby canine kidney) cells were performed using the methods of Weiss et al. and Dai et al.. […] A 4-min time point was used to estimate initial rates for kinetic experiments. Saturation kinetics were analyzed by Lineweaver-Burk plot.

[2] = ref. [23]; cited from earlier work
[3] = system: NAFA cells-xenografted tumors; experiment: Treatment of nude mice bearing NAFA cells-xenografted tumors; format: in vivo; conditions: 1.5 mCi followed by 2nd dose of 1.5 mCi one week later; vs untreated tumors
Method: Animal model. To investigate the binding of ^125I and ^188Re to NIS-expressing mammary tumors, a xenografted mammary adenocarcinoma model in nude mice was used. Since erbB-2 (Neu) is one of the better known human breast cancer oncogenes, a mammary tumor cell line (NAFA) induced by oncogenic Neu was used. The NAFA cell line derived from the MMTV-NeuT mouse was grown in DMEM with 10% fetal bovine serum and 1% penicillin-streptomycin. […] Female nude mice (Charles River Laboratories) 4-6 weeks old were injected SC with 10^6 NAFA cells into the left groin. Ten days after injection the tumors reached 0.5-0.7 cm in diameter.
When the tumors reached 0.5-0.7 cm in diameter, the animals were treated with 1.5 mCi ^188ReO4^− followed by a 2nd dose of 1.5 mCi ^188ReO4^− one week later.

NAFA-cells xenografts = experiment: Histological analysis for apoptosis (Apoptag Plus kit) of NAFA-cells xenografts; format: in vivo, nude mice; conditions: 2×1.5 mCi, day 35 post-treatment; vs control tumors
Source text: At the completion of the experimental treatment with ^188Re-perrhenate, the animals were sacrificed, their tumors removed, fixed in buffered formaline, cut and analyzed for apoptosis using an Apoptag Plus® kit. Briefly, 3′-OH termini of DNA fragments, which are the hallmark of apoptosis, were labeled with digoxigenin-modified nucleotides by terminal deoxynucleotidyl transferase (TdT). […] The labeled DNA was detected using an anti-digoxigenin antibody, and the detection was performed using a chromagen. As a result the apoptotic cells were stained brown. The results are shown in FIGS. 5A-5B, where apoptotic cells appear lightly stained in the black-and-white image. […] This observation is consistent with the fact that particulate ionizing radiation is known to cause cell death through both apoptotic and necrotic pathways.

[4] = Dosimetry calculations (MIRDOSE 3) for 70-kg reference adult bearing a 2 g tumor; parameters: species or system human; conditions: using S-values for the whole body
Method: Dosimetry. The self-doses to major organs and tumors from ^131I and ^188Re in humans were calculated using MIRDOSE 3 software (ORNL) applying S-values for a 70-kg reference adult. “S” is an absorbed dose per unit cumulated activity. S-values are tabulated in the Medical Internal Radiation Dose pamphlet #11 published by the Society of Nuclear Medicine. The following formula [26] was used for conversion of time-activity data in mice into time-activity data in humans: % ID human organ=% ID/ganimal organ·(body massaninal/body masshuman)·organ masshuman.
It should be noted that dosimetry calculations in humans were performed with the sole purpose of comparing the therapeutic efficacy and potential damage to the stomach and thyroid from ^131I and ^188Re beta-particles, thus only “self” doses were calculated. […] However, in more comprehensive dosimetry calculations organ cross-irradiation from highly penetrative ^131I gamma-rays should be taken into consideration.

[5] = Safe dose study in healthy mice, 80 days observation, thyroid and stomach histology; format: in vivo; conditions: 1.5 mCi
Method: To establish the safe dose of ^188ReO4^− to treat the NIS-expressing tumors in mice, healthy mice were treated with 1.5 mCi ^188ReO4^− and observed for 80 days. […] After 80 days the animals were sacrificed, their thyroids and stomachs removed and analyzed histologically. FIGS. 3A-3C present the hematoxylin and eosin stained thyroid tissue from a control mouse, a mouse treated with 1.5 mCi ^188ReO4^−, and a mouse treated with 50 μCi ^131I^−. FIGS. 3D-3E show the stomachs from the control mouse and the mouse treated with 1.5 mCi ^188ReO4^−, respectively.

Compound: [O-][Cl+2]([O-])O [ClO3^−]
- Km (rat thyroid NIS): 277 µM

Compound: [O-][Cl+3]([O-])([O-])O [ClO4^−, Na perchlorate, reference compound]
- Effect of co-administered blocking agent on uptake of both isotopes by NIS-expressing organs ([1]; 2 mg NaClO4 co-injected, all 3 time points): significantly decreased uptake of both isotopes by the stomach, salivary glands and thyroid

Compound: O=[N+]([O-])O [NO3^−]
- Km (rat thyroid NIS): 739 µM

Compound: [O]=[Re](=[O])(=[O])[O-] [ReO4^−]
- Blocking of NIS (rat thyroid NIS): potent blocking agent for NIS

Compound: [I-].[Na+] [^125I^−, sodium iodide, reference compound]
- Km (FRTL-5 cells): 30 µM
- Km (hNIS): 26.1 µM

Compound: [131IH] [^131I^−]
- Actual dose to the thyroid, due to iodine organification [2]: 1300 rad/mCi
- Whole body dose [2]: 0.71 rad/mCi

Compound: [Na+].[O]=[188Re](=[O])(=[O])[O-] [^188ReO4^−, Na perrhenate Na^188ReO4]
- Tumor growth [3]: Tumor growth stabilization
- Apoptotic cells in tumors (NAFA-cells xenografts): significantly higher number of apoptotic cells
- Whole body dose relative to ^131I^− [4]: ~2 times
- Tumor to normal organ ratio (RI) ([1]; 20 min, blood): 0.41
- Tumor to normal organ ratio (RI) ([1]; 20 min, kidneys): 1.22
- Tumor to normal organ ratio (RI) ([1]; 20 min, liver): 1.27
- Tumor to normal organ ratio (RI) ([1]; 20 min, muscle): 8.21
- Tumor to normal organ ratio (RI) ([1]; 20 min, salivary glands): 1.46
- Tumor to normal organ ratio (RI) ([1]; 20 min, spleen): 1.39
- Tumor to normal organ ratio (RI) ([1]; 20 min, stomach): 0.10
- Tumor to normal organ ratio (RI) ([1]; 20 min, thyroid): 0.52
- Tumor to normal organ ratio (RI) ([1]; 20 min, tumor): 1.00
- Tumor to normal organ ratio (RI) ([1]; 2 hr, blood): 0.54
- Tumor to normal organ ratio (RI) ([1]; 2 hr, kidneys): 1.40
- Tumor to normal organ ratio (RI) ([1]; 2 hr, liver): 1.43
- Tumor to normal organ ratio (RI) ([1]; 2 hr, muscle): 5.22
- Tumor to normal organ ratio (RI) ([1]; 2 hr, salivary glands): 0.54
- Tumor to normal organ ratio (RI) ([1]; 2 hr, spleen): 2.99
- Tumor to normal organ ratio (RI) ([1]; 2 hr, stomach): 0.08
- Tumor to normal organ ratio (RI) ([1]; 2 hr, thyroid): 0.25
- Tumor to normal organ ratio (RI) ([1]; 2 hr, tumor): 1.00
- Tumor to normal organ ratio (RI) ([1]; 24 hr, blood): 1.45
- Tumor to normal organ ratio (RI) ([1]; 24 hr, kidneys): 3.08
- Tumor to normal organ ratio (RI) ([1]; 24 hr, liver): 8.00
- Tumor to normal organ ratio (RI) ([1]; 24 hr, muscle): 12.50
- Tumor to normal organ ratio (RI) ([1]; 24 hr, salivary glands): 2.85
- Tumor to normal organ ratio (RI) ([1]; 24 hr, spleen): 10.00
- Tumor to normal organ ratio (RI) ([1]; 24 hr, stomach): 0.17
- Tumor to normal organ ratio (RI) ([1]; 24 hr, thyroid): 2.00
- Tumor to normal organ ratio (RI) ([1]; 24 hr, tumor): 1.00
- Concentration gradient in hNIS-transfected in comparison to non-transfected cells (hNIS; MDCK cells): 14 fold
- Damage to normal NIS-containing structures (thyroid, stomach histology) ([5]; 80 days, hematoxylin and eosin): absence of damage
- Weight loss or gastrointestinal toxicity ([5]; observed for 80 days): No weight loss or other gastrointestinal toxicity

Compound: [Na+].[O]=[Re](=[O])(=[O])[O-] [^188ReO4^−, Na perrhenate Na^188ReO4]
- Km (hNIS): 12.6 µM
